# Measured values reported in ChEMBL document CHEMBL1123970, “Ab initio molecular electrostatic potentials of perillartine analogues: implications for sweet-taste receptor recognition” (J Med Chem, 1988).
# Assay: Compound was tasted for its sweet potency, expressed with relative to sucrose
row,SMILES,Sweetness potency
1,O/N=C/C1=CCCCC1,55
2,C/C=C(C)/C=N/O,40
3,C/C=C(C)/C(C)=N/O,140
4,O/N=C/C1=CC=CCC1,90
5,COCC1=CCC(/C=N/O)=CC1,225
6,O/N=C/C1=CCC=CC1,200
7,O/N=C/C1=CCCC1,55
8,CC1=CCC(/C=N/O)=CC1,500
